Reference: ChEMBL document CHEMBL1158587, “Chloramultiols A-F, lindenane-type sesquiterpenoid dimers from Chloranthus multistachys” (J Nat Prod, 2010)

What was measured:
Assay type in all cases: functional, cell-based
A549 = assay: Cytotoxicity against human A549 cells by MTT assay
HL-60 = assay: Cytotoxicity against human HL60 cells by MTT assay
PANC-1 = assay: Cytotoxicity against human PANC1 cells by MTT assay
SMMC-7721 = assay: Cytotoxicity against human SMMC7721 cells by MTT assay
SK-BR-3 = assay: Cytotoxicity against human SKBR3 cells by MTT assay

Measured: IC50

CC1=C2C3=C4[C@](C)([C@@H]5C[C@@H]5[C@@]4(O)C[C@@H]4[C@]35OC(=O)C3=C5C[C@H]5[C@](O)(COC(=O)/C(C)=C/COC(=O)CCC(=O)OC3)[C@H]3C[C@H]3[C@]45C)[C@@H](O)[C@@]2(O)OC1=O [CHLORAMULTILIDE C]
> 10 µM: all assays above

C/C=C(\C)C(=O)OC[C@]1(O)[C@H]2C[C@H]2[C@]2(C)[C@@H]3C[C@@]4(O)C5=C(C6=C(C)C(=O)O[C@]6(O)[C@H](O)[C@@]5(C)[C@@H]5C[C@@H]54)[C@@]34OC(=O)C(CO)=C4C[C@@H]12 [CHLORAMULTILIDE D]
> 10 µM: all assays above

COC(=O)/C(C)=C1\C(=O)[C@H](O)[C@]2(C)C3=C([C@H]4C[C@H]42)[C@H](O)[C@@H]2[C@]4(OC(=O)C5=C4C[C@H]4[C@](O)(COC(=O)/C(C)=C/COC(=O)CCC(=O)OC5)[C@H]5C[C@H]5[C@]24C)[C@H]31 [CHLORAMULTIOL A]
> 10 µM: all assays above

CC1=C2C3=C4[C@](C)([C@@H]5C[C@@H]5[C@@]4(O)C[C@@H]4[C@]35OC(=O)C(CO)=C5C[C@H]3[C@](O)(CO)[C@H]5C[C@H]5[C@]43C)[C@@H](O)[C@@]2(O)OC1=O [CHLORAMULTIOL B]
> 10 µM: all assays above

C/C=C(\C)C(=O)OC[C@]1(O)[C@H]2C[C@H]2[C@]2(C)[C@@H]3C[C@@]4(O)C5=C(C6=C(C)C(=O)O[C@]6(OC)[C@H](O)[C@@]5(C)[C@@H]5C[C@@H]54)[C@@]34OC(=O)C(CO)=C4C[C@@H]12 [CHLORAMULTIOL C]
> 10 µM: all assays above

C/C=C(\C)C(=O)OC[C@]1(O)[C@H]2C[C@H]2[C@]2(C)[C@@H]3C[C@@]4(O)C5=C(C6=C(C)C(=O)O[C@]6(O)C(=O)[C@@]5(C)[C@@H]5C[C@@H]54)[C@@]34OC(=O)C(CO)=C4C[C@@H]12 [CHLORAMULTIOL D]
> 10 µM: all assays above

CC(=O)OC[C@@H]1[C@H]2C[C@H]2[C@]2(C)[C@@H]3C[C@@]4(O)C5=C(C6=C(C)C(=O)O[C@]6(O)[C@H](O)[C@@]5(C)[C@@H]5C[C@@H]54)[C@@]34OC(=O)C(CO)=C4C[C@@H]12 [CHLORAMULTIOL E]
> 10 µM: all assays above

CO[C@]12OC(=O)C(C)=C1C1=C3C(=C[C@@H]4[C@]15OC(=O)C1=C5C[C@H]5[C@](O)(COC(=O)/C(C)=C/COC(=O)CCC(=O)OC1)[C@H]1C[C@H]1[C@]45C)[C@H]1C[C@H]1[C@]3(C)[C@H]2O [CHLORAMULTIOL F]
> 10 µM: all assays above

COC(=O)[C@]1(C)CC2=C3C=C(C(=O)[C@H](O)[C@@]3(C)[C@@H]3C[C@H]23)[C@](C)(C(=O)OC)CC2=C3C=C1C(=O)[C@H](O)[C@@]3(C)[C@@H]1C[C@H]21 [Cycloshizukaol A]
> 10 µM: all assays above

C/C=C(\C)C(=O)OCC1=C2C[C@H]3[C@H](O)[C@H]4C[C@H]4[C@]3(C)[C@@H]3C[C@@]4(O)C5=C(/C(=C(/C)C(=O)OC)C(=O)[C@H](O)[C@@]5(C)[C@@H]5C[C@@H]54)[C@]23OC1=O [SHIZUKAOL C]
> 10 µM: all assays above

COC(=O)/C(C)=C1/C(=O)[C@H](O)[C@]2(C)C3=C1[C@]14OC(=O)C(COC(C)=O)=C1C[C@H]1C[C@H]5C[C@H]5[C@]1(C)[C@@H]4C[C@]3(O)[C@H]1C[C@H]12 [SHIZUKAOL D]
> 10 µM: all assays above

CC1=C2C3=C4[C@@](C)(C(=O)[C@@]2(O)OC1=O)[C@@H]1C[C@@H]1[C@@]4(O)C[C@@H]1[C@]32OC(=O)C3=C2C[C@H]2[C@](O)(COC(=O)/C(C)=C/COC(=O)CCC(=O)OC3)[C@H]3C[C@H]3[C@]12C [SPICACHLORANTIN B]
> 10 µM: all assays above
